Legend:
Format in all cases: cell-based
[1] = system: Proteus vulgaris; experiment: MIC against Gram-negative bacteria: Proteus vulgaris; details: 5×10^5 CFU/mL
Outline: (§1)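 Bacteria grown in LB at 37° C with shaking to McFarland 0.5, pelleted and resuspended in fresh LB, then seeded at 5×10^5 CFU/mL per well. Purified recombinant human EGF domain proteins were two-fold serially diluted in triplicate and plates shaken at 37° C, 175 rpm. MIC is the lowest protein concentration with no bacterial growth.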

[2] = system: Klebsiella pneumonia; experiment: MIC against Gram-negative bacteria: Klebsiella pneumonia; details: 5×10^5 CFU/mL
Outline: as §1

[3] = system: Proteus mirabilis; experiment: MIC against Gram-negative bacteria: Proteus mirabilis; details: 5×10^5 CFU/mL
Outline: as §1

[4] = system: E. coli BL21; experiment: MIC against Gram-negative bacteria: E. coli BL21; details: 5×10^5 CFU/mL
Outline: as §1

[5] = system: Enterobacter cloacae; experiment: MIC against Gram-negative bacteria: Enterobacter cloacae; details: 5×10^5 CFU/mL
Outline: as §1

[6] = system: Pseudomonas aeruginosa; experiment: MIC against Gram-negative bacteria: Pseudomonas aeruginosa; details: 5×10^5 CFU/mL
Outline: as §1

[7] = system: E. coli DH5α; experiment: Antibacterial activity: MIC and growth curve against E. coli DH5α in 96-well plate; details: minimal inhibitory concentration against E. coli DH5α; 96-well plate, 5×10^5 CFU/mL, 37° C., judged after 8 h
Outline: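 MIC taken as lowest protein level with no bacterial growth, tracked by A600 every 30 min during 37 °C, 175 rpm culture. Two-fold protein series 50-12.5 μg/mL final, triplicate wells, against 5×10^5 CFU/mL of LB-washed mid-log cells.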

[8] = system: Serratia marcescens; experiment: MIC against Gram-negative bacteria: Serratia marcescens; details: 5×10^5 CFU/mL
Outline: as §1

[9] = system: Aeromonas hydrophila; experiment: MIC against Gram-negative bacteria: Aeromonas hydrophila; details: 5×10^5 CFU/mL
Outline: as §1

[10] = system: Moraxella catarrhalis; experiment: MIC against Gram-negative bacteria: Moraxella catarrhalis; details: 5×10^5 CFU/mL
Outline: as §1

[11] = system: Citrobacter diversus; experiment: MIC against Gram-negative bacteria: Citrobacter diversus; details: 5×10^5 CFU/mL
Outline: as §1

[12] = P. vulgaris, 10 h cultivation at 37° C.
[13] = K. pneumonia, 10 h cultivation at 37° C.
[14] = P. mirabilis, 10 h cultivation at 37° C.
[15] = E. coli BL21, 10 h cultivation at 37° C.
[16] = E. cloacae, 10 h cultivation at 37° C.
[17] = P. aeruginosa, 10 h cultivation at 37° C.
[18] = S. marcescens, 10 h cultivation at 37° C.
[19] = A. hydrophila, 10 h cultivation at 37° C.
[20] = M. catarrhalis, 10 h cultivation at 37° C.
[21] = C. diversus, 10 h cultivation at 37° C.
[22] = Proteus vulgaris, 96-well plate, 37° C., 10 h
[23] = Klebsiella pneumonia, 96-well plate, 37° C., 10 h
[24] = Proteus mirabilis, 96-well plate, 37° C., 10 h
[25] = E. coli BL21, 96-well plate, 37° C., 10 h
[26] = Enterobacter cloacae, 96-well plate, 37° C., 10 h
[27] = Pseudomonas aeruginosa, 96-well plate, 37° C., 10 h
[28] = Serratia marcescens, 96-well plate, 37° C., 10 h
[29] = Aeromonas hydrophila, 96-well plate, 37° C., 10 h
[30] = Moraxella catarrhalis, 96-well plate, 37° C., 10 h
[31] = Citrobacter diversus, 96-well plate, 37° C., 10 h
[32] = Proteus vulgaris, 10 h cultivation at 37° C.
[33] = Klebsiella pneumonia, 10 h cultivation at 37° C.
[34] = Proteus mirabilis, 10 h cultivation at 37° C.
[35] = Enterobacter cloacae, 10 h cultivation at 37° C.
[36] = Pseudomonas aeruginosa, 10 h cultivation at 37° C.
[37] = Serratia marcescens, 10 h cultivation at 37° C.
[38] = Aeromonas hydrophila, 10 h cultivation at 37° C.
[39] = Moraxella catarrhalis, 10 h cultivation at 37° C.
[40] = Citrobacter diversus, 10 h cultivation at 37° C.

PRT416 (DVDECAPPAEPCGKGHRCVNSPGSFRCECKTGYYFDGISRMCV; listed as Homo sapiens)
12.5 µg/mL: MIC [6, 17] | MIC [8, 18] | MIC [11, 21]
25 µg/mL: MIC [1, 12] | MIC [2, 13] | MIC [4, 15] | MIC [9, 19] | MIC [10, 20]
50 µg/mL: MIC [3, 14] | MIC [5, 16] | MIC [7]

PRT232 (DIDECRQDPSTCGPNSICTNALGSYSCGCIAGFHPNPEGSQKDGNFSCQ; listed as Homo sapiens)
12.5 µg/mL: MIC (μg/mL) P. vulgaris [1, 12] | MIC (μg/mL) K. pneumonia [2, 13] | MIC (μg/mL) E. coli BL21 [4, 15] | MIC (μg/mL) A. hydrophila [9, 19] | MIC (μg/mL) M. catarrhalis [10, 20]
25 µg/mL: MIC (μg/mL) P. mirabilis [3, 14] | MIC (μg/mL) E. cloacae [5, 16] | MIC (μg/mL) P. aeruginosa [6, 17] | MIC [7] | MIC (μg/mL) S. marcescens [8, 18] | MIC (μg/mL) C. diversus [11, 21]

PRT759 (RVDYCLLSDHGCEYSCVNMDRSFACQCPEGHVLRSDGKTCA; listed as Homo sapiens)
25 µg/mL: MIC (μg/mL) P. aeruginosa [6, 17] | MIC [7] | MIC (μg/mL) S. marcescens [8, 18] | MIC (μg/mL) M. catarrhalis [10, 20]
12.5 µg/mL: MIC (μg/mL) P. vulgaris [1, 12] | MIC (μg/mL) K. pneumonia [2, 13] | MIC (μg/mL) P. mirabilis [3, 14] | MIC (μg/mL) E. coli BL21 [4, 15] | MIC (μg/mL) E. cloacae [5, 16] | MIC (μg/mL) A. hydrophila [9, 19] | MIC (μg/mL) C. diversus [11, 21]

PRT77 (RSGRCTPGVCKNGGTCVNLLVGGFKCDCPSGDFEKPYCQ; listed as Homo sapiens)
50 µg/mL: MIC (μg/mL) P. vulgaris [1, 22] | MIC (μg/mL) K. pneumonia [2, 23] | MIC (μg/mL) P. mirabilis [3, 24] | MIC (μg/mL) S. marcescens [8, 28] | MIC (μg/mL) C. diversus [11, 31]
25 µg/mL: MIC (μg/mL) E. cloacae [5, 26] | MIC (μg/mL) P. aeruginosa [6, 27] | MIC [7]
12.5 µg/mL: MIC (μg/mL) E. coli BL21 [4, 25] | MIC (μg/mL) A. hydrophila [9, 29] | MIC (μg/mL) M. catarrhalis [10, 30]

PRT1359 (SREICPVPCSEEHGTCVDGLCVCHDGFAGDDCN; listed as Homo sapiens)
25 µg/mL: MIC against P. mirabilis [3, 34] | MIC against E. cloacae [5, 35] | MIC against P. aeruginosa [6, 36] | MIC [7] | MIC against S. marcescens [8, 37] | MIC against C. diversus [11, 40]
12.5 µg/mL: MIC against P. vulgaris [1, 32] | MIC against K. pneumonia [2, 33] | MIC against E. coli BL21 [4, 15] | MIC against A. hydrophila [9, 38] | MIC against M. catarrhalis [10, 39]

PRT38 (VRDLCGQRTTDACEQLCDPETGECSCHEGYAPDPVHRHLCV; listed as Homo sapiens)
25 µg/mL: MIC (μg/mL) P. mirabilis [3, 24] | MIC (μg/mL) E. coli BL21 [4, 25] | MIC (μg/mL) E. cloacae [5, 26]
100 µg/mL: MIC (μg/mL) A. hydrophila [9, 29]
50 µg/mL: MIC (μg/mL) P. vulgaris [1, 22] | MIC (μg/mL) K. pneumonia [2, 23] | MIC [7] | MIC (μg/mL) S. marcescens [8, 28] | MIC (μg/mL) C. diversus [11, 31]
12.5 µg/mL: MIC (μg/mL) P. aeruginosa [6, 27] | MIC (μg/mL) M. catarrhalis [10, 30]

PRT113 (DLDECASRSKSGEEDPQPQCQHLCHNYVGGYFCSCRPGYELQEDRHSCQ; listed as Homo sapiens)
25 µg/mL: MIC (μg/mL) E. cloacae [5, 26] | MIC (μg/mL) P. aeruginosa [6, 27]
100 µg/mL: MIC (μg/mL) S. marcescens [8, 28]
50 µg/mL: MIC (μg/mL) E. coli BL21 [4, 25] | MIC (μg/mL) A. hydrophila [9, 29] | MIC (μg/mL) M. catarrhalis [10, 30]
12.5 µg/mL: MIC (μg/mL) P. vulgaris [1, 22] | MIC (μg/mL) K. pneumonia [2, 23] | MIC (μg/mL) P. mirabilis [3, 24] | MIC [7] | MIC (μg/mL) C. diversus [11, 31]

PRT642 (DVNECDELNNRMSLCKNAKCINTDGSYKCLCLPGYVPSDKPNYCT; listed as Homo sapiens)
25 µg/mL: MIC P. mirabilis ([3]; 96-well plate, 37° C., 10 h) | MIC E. cloacae ([5]; 96-well plate, 37° C., 10 h) | MIC P. aeruginosa ([6]; 96-well plate, 37° C., 10 h) | MIC S. marcescens ([8]; 96-well plate, 37° C., 10 h) | MIC C. diversus ([11]; 96-well plate, 37° C., 10 h)
50 µg/mL: MIC P. vulgaris ([1]; 96-well plate, 37° C., 10 h) | MIC E. coli BL21 ([4]; 96-well plate, 37° C., 10 h) | MIC A. hydrophila ([9]; 96-well plate, 37° C., 10 h)
12.5 µg/mL: MIC K. pneumonia ([2]; 96-well plate, 37° C., 10 h) | MIC [7] | MIC M. catarrhalis ([10]; 96-well plate, 37° C., 10 h)

PRT1485 (DVNECRRPLERRVCHHSCHNTVGSFLCTCRPGFRLRADRVSCE; listed as Homo sapiens)
12.5 µg/mL: MIC against P. vulgaris [1, 32] | MIC against K. pneumonia [2, 33] | MIC against P. mirabilis [3, 34] | MIC against E. cloacae [5, 35] | MIC against P. aeruginosa [6, 36] | MIC [7] | MIC against S. marcescens [8, 37] | MIC against C. diversus [11, 40]
50 µg/mL: MIC against E. coli BL21 [4, 15] | MIC against A. hydrophila [9, 38] | MIC against M. catarrhalis [10, 39]

PRT1274 (DVDECAEGNGGCQQSCVNMMGSYECHCREGFFLSDNQ; listed as Homo sapiens)
12.5 µg/mL: MIC against E. cloacae [5, 26] | MIC against P. aeruginosa [6, 27] | MIC [7] | MIC against M. catarrhalis [10, 30]
50 µg/mL: MIC against P. vulgaris [1, 22] | MIC against K. pneumonia [2, 23] | MIC against E. coli BL21 [4, 25] | MIC against A. hydrophila [9, 29]
25 µg/mL: MIC against P. mirabilis [3, 24] | MIC against S. marcescens [8, 28] | MIC against C. diversus [11, 31]

Source: patent publication US9833497B2, “Human originated EGF domain proteins and use of the same” (CHENGDU SOURCEBIO LIMITED-LIABILITY COMPANY, priority 2013, dated 2017)
